# Assay results from patent US9134245B2, “Cell-based antioxidant protection assay” (Natural Immune Systems, Inc., priority 2007, dated 2015).
# Test system: red blood cells (RBC)
# Assay: CAP-e assay (RBC treated with test sample, washed, lysed; CM-H2DCFDA fluorescence after oxidative challenge)
# Format: cell-based, human
# Conditions: for inhibition of oxidative damage: hydroxyl free radical generator H2O2 compared with peroxyl free radical generator AAPH: dose response curves, FIG. 2 and FIG. 3
# Method: Whole blood was collected from healthy volunteers. A double density gradient was prepared, where 3 ml of HISTOPAQUE® 1099 was overlaid with 3 ml of HISTOPAQUE® 1077. 5-6 ml of whole anticoagulated blood was layered on top of the double gradient and centrifuged for 25 minutes at 2400 rpm. The plasma, peripheral blood mononuclear cells, polymorphonuclear cells, and HISTOPAQUE® were removed using a transfer pipette. The remaining packed red blood cell fraction was washed three times in 10-14 ml PBS by centrifugation at 2400 rpm for 10 minutes. After the third wash the supernatant was removed, and the packed RBC were aliquoted for storage by pipetting 200 μl packed RBC into 10 ml PBS. The RBC aliquots were stored at 4-8° C. until use. The cells were used the same day or after up to 120 days of storage. For most routine testing, the RBC were typically prepared 2-4 weeks before use.
# The antioxidant standard gallic acid (GA) was prepared by dissolving 85 mg of GA in 0.5 ml of 99.95% methanol. 0.2 ml of the dissolved GA was immediately diluted in 49.8 ml of PBS. Serial five-fold dilutions of the GA solution were prepared in PBS.
# The serial dilutions of the extract and the GA standard were aliquoted in duplicate in a deep-well microplate. 100 μl of the RBC suspension was added to each well. The plate was incubated for 20 minutes at room temperature in the dark. Unabsorbed antioxidants were removed by washing the RBC three times in PBS by centrifugation for 2.5 minutes at 2400 rpm. The RBC pellets were lysed by incubation in 0.08 ml distilled water for 5 minutes at room temperature.
# The fluorescent probe was prepared by reconstituting 50 μg CM-H2DCFDA in 0.2 ml anhydrous dimethyl sulfoxide, which was then added to 7.5 ml PS. After lysis of RBC was complete 70 μl of the lysed RBC were transferred to a black microplate and 50 μl of CM-H2DCFDA was added to each well (16.25 μM CM-H2DCFDA). The microplate was incubated for 20 minutes at room temperature or 37° C. in the dark. Then 50 μl H2O2 (0.0004% final concentration) or 50 μl AAPH (1 mg/ml final concentration) was added to each well. Wells exposed to H2O2 were incubated for 5 minutes at room temperature in the dark. Wells exposed to AAPH were incubated for one hour at room temperature or 37° C. in the dark. Fluorescence intensity was measured in a Tecan Spectrafluor fluorescence plate reader with excitation at 485 nm and emission at 535 nm.
# Negative controls were RBC which were not treated with a test sample or standard and were not exposed to an oxidative challenge. Positive controls were RBC which were not treated with a test sample or standard, but were exposed to an oxidative challenge. The percent inhibition of oxidative damage was calculated as [(fluorescence intensity of RBC treated with free radical generator−fluorescence intensity of RBC treated with test sample and free radical generator)/(fluorescence intensity of RBC treated with free radical generator−fluorescence intensity of untreated RBC)]×100.
# The CAP-e value of a given test product is based on the comparison of the dose-response of inhibition of oxidative damage between the standard gallic acid (GA) and the test sample. For each test sample or compound, the IC50 for inhibition of oxidative damage is calculated. […] The CAP-e units of GA was set as 1,000 Gallic Acid Equivalents (GAE). […] The CAP-e value was expressed as CAP-e units/g of sample.
compound,measurement,setting,value
"O=C(O)c1cc(O)c(O)c(O)c1 [GA, gallic acid]",IC50,"Homo sapiens, Erythrocyte, determined from more than 60 independent experiments, read-out: IC50 for inhibition of oxidative damage",32 µg/mL
same,"amount needed for the same level of protection, RBC from older person versus younger person","RBC from a person over 85 years versus under 50 years of age, H2O2, FIG. 11",More GA was required
same,inhibition of oxidative damage: hydroxyl free radical generator H2O2 compared with peroxyl free radical generator AAPH,,equally effective
"Cc1c(C)c2c(c(C)c1O)CCC(C)(C(=O)O)O2 (centres unmarked) [TROLOX®, 6-hydroxy-2,5,7,8-tetramethylchroman-2-carboxylic acid]",protection of RBC from damage from both free radical generators,"H2O2 and AAPH, at higher concentrations",protected RBC from damage
same,inhibition of oxidative damage: hydroxyl free radical generator H2O2 compared with peroxyl free radical generator AAPH,,more effective against hydroxyl free radicals at lower concentrations
